In patent publication US20100267561A1, “HERBICIDAL PYRIDAZINONE DERIVATIVES” (priority 2007, published 2010):

Key:
Assay type in all cases: in vivo
[1] = tested on: barnyardgrass (Echinochloa crus-galli); experiment: Test A pre-/postemergence plant response
Excerpt: (§1) Seeds of species selected from barnyardgrass (Echinochloa crus-galli), large crabgrass (Digitaria sanguinalis), giant foxtail (Setaria faberi), blackgrass (Alopecurus myosuroides), canarygrass (Phalaris minor), morningglory (Ipomoea coccinea), pigweed (Amaranthus retroflexus), velvetleaf (Abutilon theophrasti), wheat (Triticum aestivum), and corn (Zea mays) were planted into a blend of loam soil and sand and treated preemergence with a directed soil spray using test chemicals formulated in a non-phytotoxic solvent mixture which included a surfactant. At the same time these species were also treated with postemergence applications of test chemicals formulated in the same manner.
(§2) Plants ranged in height from 2 to 10 cm and were in the one- to two-leaf stage for the postemergence treatment. Treated plants and untreated controls were maintained in a greenhouse for approximately 10 days, after which time all treated plants were compared to untreated controls and visually evaluated for injury. Plant response ratings, summarized in Table A, are based on a 0 to 100 scale where 0 is no effect and 100 is complete control. A dash (-) response means no test results.

corn (Zea mays) = experiment: Test A pre-/postemergence plant response
Excerpt: as §1, §2

[2] = tested on: giant foxtail (Setaria faberi); experiment: Test A pre-/postemergence plant response
Excerpt: as §1, §2

[3] = tested on: large crabgrass (Digitaria sanguinalis); experiment: Test A pre-/postemergence plant response
Excerpt: as §1, §2

[4] = tested on: morningglory (Ipomoea coccinea); experiment: Test A pre-/postemergence plant response
Excerpt: as §1, §2

[5] = tested on: pigweed (Amaranthus retroflexus); experiment: Test A pre-/postemergence plant response
Excerpt: as §1, §2

[6] = tested on: velvetleaf (Abutilon theophrasti); experiment: Test A pre-/postemergence plant response
Excerpt: as §1, §2

[7] = tested on: wheat (Triticum aestivum); experiment: Test A pre-/postemergence plant response
Excerpt: as §1, §2

[8] = tested on: barnyardgrass (Echinochloa crus-galli); experiment: Test B flooded paddy test plant response
Procedure, shortened: (§3)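 Rice, umbrella sedge, ducksalad and barnyardgrass at 2-leaf stage; pots flooded to 3 cm, compounds applied into paddy water, depth held throughout. Greenhouse 13 to 15 days, then visual rating vs untreated controls on 0–100 scale (0 no effect, 100 complete control); dash means no test result.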

[9] = tested on: ducksalad (Heteranthera limosa); experiment: Test B flooded paddy test plant response
Procedure, shortened: as §3

rice (Oryza sativa) = experiment: Test B flooded paddy test plant response
Procedure, shortened: as §3

[10] = tested on: umbrella sedge (Cyperus difformis); experiment: Test B flooded paddy test plant response
Procedure, shortened: as §3

[11] = Postemergence, 125 g ai/ha, 0 to 100 scale, 0 no effect, 100 complete control
[12] = Postemergence, 500 g ai/ha, 0 to 100 scale, 0 no effect, 100 complete control
[13] = Preemergence, 125 g ai/ha, 0 to 100 scale (0 no effect, 100 complete control)
[14] = Preemergence, 500 g ai/ha, 0 to 100 scale (0 no effect, 100 complete control)
[15] = Flood (flooded paddy test), 62 g ai/ha, scale 0 to 100, 0 no effect, 100 complete control
[16] = Flood (flooded paddy test), 125 g ai/ha, scale 0 to 100, 0 no effect, 100 complete control
[17] = Flood (flooded paddy test), 250 g ai/ha, scale 0 to 100, 0 no effect, 100 complete control
[18] = Flood, 31 g ai/ha, scale 0 to 100
[19] = Postemergence, 31 g ai/ha, 0 to 100 scale, 0 no effect, 100 complete control
[20] = Preemergence, 31 g ai/ha, 0 to 100 scale, 0 is no effect, 100 is complete control

SMILES: Cc1cc(-c2ccc(C(F)(F)F)cc2)nn1-c1c(O)c(C(F)(F)F)nn(C)c1=O [Compound 42]
- Plant response rating, Barnyardgrass [1, 11]: 0
- Plant response rating, Barnyardgrass [1, 12]: 0
- Plant response rating, Barnyardgrass [1, 13]: 0
- Plant response rating, Barnyardgrass [1, 14]: 0
- Plant response rating, Corn (corn (Zea mays); [11]): 20
- Plant response rating, Corn (corn (Zea mays); [12]): 20
- Plant response rating, Corn (corn (Zea mays); [13]): 0
- Plant response rating, Corn (corn (Zea mays); [14]): 0
- Plant response rating, Foxtail, Giant [2, 11]: 0
- Plant response rating, Foxtail, Giant [2, 12]: 10
- Plant response rating, Foxtail, Giant [2, 13]: 0
- Plant response rating, Foxtail, Giant [2, 14]: 0
- Plant response rating, Crabgrass, Large [3, 11]: 0
- Plant response rating, Crabgrass, Large [3, 12]: 0
- Plant response rating, Crabgrass, Large [3, 13]: 0
- Plant response rating, Crabgrass, Large [3, 14]: 0
- Plant response rating, Morningglory [4, 11]: 0
- Plant response rating, Morningglory [4, 12]: 0
- Plant response rating, Morningglory [4, 13]: 0
- Plant response rating, Morningglory [4, 14]: 0
- Plant response rating, Pigweed [5, 11]: 0
- Plant response rating, Pigweed [5, 12]: 0
- Plant response rating, Pigweed [5, 13]: 0
- Plant response rating, Pigweed [5, 14]: 0
- Plant response rating, Velvetleaf [6, 11]: 0
- Plant response rating, Velvetleaf [6, 12]: 0
- Plant response rating, Velvetleaf [6, 13]: 0
- Plant response rating, Velvetleaf [6, 14]: 0
- Plant response rating, Wheat [7, 11]: 0
- Plant response rating, Wheat [7, 12]: 10
- Plant response rating, Wheat [7, 13]: 0
- Plant response rating, Wheat [7, 14]: 0
- Plant response rating, Barnyardgrass [8, 15]: 0
- Plant response rating, Barnyardgrass [8, 16]: 0
- Plant response rating, Barnyardgrass [8, 17]: 0
- Plant response rating, Barnyardgrass [8, 18]: 0
- Plant response rating, Ducksalad [9, 15]: 0
- Plant response rating, Ducksalad [9, 16]: 0
- Plant response rating, Ducksalad [9, 17]: 0
- Plant response rating, Ducksalad [9, 18]: 0
- Plant response rating, Rice (rice (Oryza sativa); [15]): 0
- Plant response rating, Rice (rice (Oryza sativa); [16]): 0
- Plant response rating, Rice (rice (Oryza sativa); [17]): 0
- Plant response rating, Rice (rice (Oryza sativa); [18]): 0
- Plant response rating, Sedge, Umbrella [10, 15]: 0
- Plant response rating, Sedge, Umbrella [10, 16]: 0
- Plant response rating, Sedge, Umbrella [10, 17]: 0
- Plant response rating, Sedge, Umbrella [10, 18]: 0

SMILES: Cc1cc(-c2ccc(Cl)cc2)nn1-c1c(OS(=O)(=O)C2CC2)cnn(C)c1=O [Compound 49]
- Plant response rating, Barnyardgrass [1, 19]: 0
- Plant response rating, Barnyardgrass [1, 11]: 0
- Plant response rating, Barnyardgrass [1, 20]: 0
- Plant response rating, Barnyardgrass [1, 13]: 0
- Plant response rating, Corn (corn (Zea mays); [19]): 0
- Plant response rating, Corn (corn (Zea mays); [11]): 0
- Plant response rating, Corn (corn (Zea mays); [20]): 0
- Plant response rating, Corn (corn (Zea mays); [13]): 0
- Plant response rating, Foxtail, Giant [2, 19]: 0
- Plant response rating, Foxtail, Giant [2, 11]: 20
- Plant response rating, Foxtail, Giant [2, 20]: 0
- Plant response rating, Foxtail, Giant [2, 13]: 80
- Plant response rating, Crabgrass, Large [3, 19]: 0
- Plant response rating, Crabgrass, Large [3, 11]: 20
- Plant response rating, Crabgrass, Large [3, 20]: 0
- Plant response rating, Crabgrass, Large [3, 13]: 40
- Plant response rating, Morningglory [4, 19]: 0
- Plant response rating, Morningglory [4, 11]: 0
- Plant response rating, Morningglory [4, 20]: 0
- Plant response rating, Morningglory [4, 13]: 0
- Plant response rating, Pigweed [5, 19]: 0
- Plant response rating, Pigweed [5, 11]: 0
- Plant response rating, Pigweed [5, 20]: 0
- Plant response rating, Pigweed [5, 13]: 0
- Plant response rating, Velvetleaf [6, 19]: 0
- Plant response rating, Velvetleaf [6, 11]: 0
- Plant response rating, Velvetleaf [6, 20]: 0
- Plant response rating, Velvetleaf [6, 13]: 0
- Plant response rating, Wheat [7, 19]: 0
- Plant response rating, Wheat [7, 11]: 0
- Plant response rating, Wheat [7, 20]: 0
- Plant response rating, Wheat [7, 13]: 0
- Plant response rating, Barnyardgrass [8, 15]: 0
- Plant response rating, Barnyardgrass [8, 16]: 0
- Plant response rating, Barnyardgrass [8, 17]: 0
- Plant response rating, Barnyardgrass [8, 18]: 0
- Plant response rating, Ducksalad [9, 15]: 0
- Plant response rating, Ducksalad [9, 17]: 0
- Plant response rating, Ducksalad [9, 18]: 0
- Plant response rating, Rice (rice (Oryza sativa); [15]): 0
- Plant response rating, Rice (rice (Oryza sativa); [16]): 0
- Plant response rating, Rice (rice (Oryza sativa); [17]): 0
- Plant response rating, Rice (rice (Oryza sativa); [18]): 0
- Plant response rating, Sedge, Umbrella [10, 15]: 0
- Plant response rating, Sedge, Umbrella [10, 16]: 0
- Plant response rating, Sedge, Umbrella [10, 17]: 0
- Plant response rating, Sedge, Umbrella [10, 18]: 0

SMILES: Cc1cc(-n2cc(Cl)cn2)ccc1-c1c(O)cnn(C)c1=O [Compound 60]
- Plant response rating, Barnyardgrass [1, 11]: 30
- Plant response rating, Barnyardgrass [1, 12]: 90
- Plant response rating, Barnyardgrass [1, 13]: 70
- Plant response rating, Barnyardgrass [1, 14]: 100
- Plant response rating, Corn (corn (Zea mays); [11]): 40
- Plant response rating, Corn (corn (Zea mays); [12]): 90
- Plant response rating, Corn (corn (Zea mays); [13]): 50
- Plant response rating, Corn (corn (Zea mays); [14]): 90
- Plant response rating, Foxtail, Giant [2, 11]: 50
- Plant response rating, Foxtail, Giant [2, 12]: 80
- Plant response rating, Foxtail, Giant [2, 13]: 80
- Plant response rating, Foxtail, Giant [2, 14]: 100
- Plant response rating, Crabgrass, Large [3, 11]: 20
- Plant response rating, Crabgrass, Large [3, 12]: 60
- Plant response rating, Crabgrass, Large [3, 13]: 20
- Plant response rating, Crabgrass, Large [3, 14]: 80
- Plant response rating, Morningglory [4, 11]: 0
- Plant response rating, Morningglory [4, 12]: 0
- Plant response rating, Morningglory [4, 13]: 0
- Plant response rating, Morningglory [4, 14]: 0
- Plant response rating, Pigweed [5, 11]: 0
- Plant response rating, Pigweed [5, 12]: 0
- Plant response rating, Pigweed [5, 13]: 0
- Plant response rating, Pigweed [5, 14]: 0
- Plant response rating, Velvetleaf [6, 11]: 0
- Plant response rating, Velvetleaf [6, 12]: 0
- Plant response rating, Velvetleaf [6, 13]: 0
- Plant response rating, Velvetleaf [6, 14]: 0
- Plant response rating, Wheat [7, 11]: 0
- Plant response rating, Wheat [7, 12]: 50
- Plant response rating, Wheat [7, 13]: 0
- Plant response rating, Wheat [7, 14]: 50
- Plant response rating, Barnyardgrass [8, 15]: 0
- Plant response rating, Barnyardgrass [8, 17]: 30
- Plant response rating, Ducksalad [9, 15]: 0
- Plant response rating, Ducksalad [9, 17]: 0
- Plant response rating, Rice (rice (Oryza sativa); [15]): 0
- Plant response rating, Rice (rice (Oryza sativa); [17]): 30
- Plant response rating, Sedge, Umbrella [10, 15]: 0
- Plant response rating, Sedge, Umbrella [10, 17]: 0

SMILES: Cc1cc(-c2ccc(Cl)cc2)nn1-c1c(OC(=O)N(C)C)cnn(C)c1=O [Compound 64]
- Plant response rating, Barnyardgrass [1, 19]: 0
- Plant response rating, Barnyardgrass [1, 11]: 10
- Plant response rating, Barnyardgrass [1, 20]: 0
- Plant response rating, Barnyardgrass [1, 13]: 0
- Plant response rating, Corn (corn (Zea mays); [19]): 0
- Plant response rating, Corn (corn (Zea mays); [11]): 60
- Plant response rating, Corn (corn (Zea mays); [20]): 0
- Plant response rating, Corn (corn (Zea mays); [13]): 30
- Plant response rating, Foxtail, Giant [2, 19]: 30
- Plant response rating, Foxtail, Giant [2, 11]: 80
- Plant response rating, Foxtail, Giant [2, 20]: 0
- Plant response rating, Foxtail, Giant [2, 13]: 50
- Plant response rating, Crabgrass, Large [3, 19]: 0
- Plant response rating, Crabgrass, Large [3, 11]: 40
- Plant response rating, Crabgrass, Large [3, 20]: 0
- Plant response rating, Crabgrass, Large [3, 13]: 50
- Plant response rating, Morningglory [4, 19]: 0
- Plant response rating, Morningglory [4, 11]: 0
- Plant response rating, Morningglory [4, 20]: 0
- Plant response rating, Morningglory [4, 13]: 0
- Plant response rating, Pigweed [5, 19]: 0
- Plant response rating, Pigweed [5, 11]: 0
- Plant response rating, Pigweed [5, 20]: 0
- Plant response rating, Pigweed [5, 13]: 0
- Plant response rating, Velvetleaf [6, 19]: 0
- Plant response rating, Velvetleaf [6, 11]: 0
- Plant response rating, Velvetleaf [6, 20]: 0
- Plant response rating, Velvetleaf [6, 13]: 0
- Plant response rating, Wheat [7, 19]: 0
- Plant response rating, Wheat [7, 11]: 0
- Plant response rating, Wheat [7, 20]: 0
- Plant response rating, Wheat [7, 13]: 0
- Plant response rating, Barnyardgrass [8, 15]: 0
- Plant response rating, Barnyardgrass [8, 17]: 0
- Plant response rating, Ducksalad [9, 15]: 0
- Plant response rating, Ducksalad [9, 17]: 0
- Plant response rating, Rice (rice (Oryza sativa); [15]): 0
- Plant response rating, Rice (rice (Oryza sativa); [17]): 0
- Plant response rating, Sedge, Umbrella [10, 15]: 0
- Plant response rating, Sedge, Umbrella [10, 17]: 0
